{
  "source": "ChEMBL document CHEMBL5137114",
  "about": "“Discovery of IHMT-MST1-58 as a Novel, Potent, and Selective MST1 Inhibitor for the Treatment of Type 1/2 Diabetes” (J Med Chem, 2022)",
  "key": {"[1]": {"assay": "AUC (0 to t) in mouse at 1 mg/kg, iv measured up to 12 hrs by LC-MS/MS analysis", "format": "ADME, organism-based", "parameters": "time < 12 hrs, dose 1 mg/kg, route iv", "settings": "in vivo"}, "[2]": {"target": "T1, Serine/threonine-protein kinase 3 (Homo sapiens) (UniProt Q13188)", "T1 sequence (whole entry)": "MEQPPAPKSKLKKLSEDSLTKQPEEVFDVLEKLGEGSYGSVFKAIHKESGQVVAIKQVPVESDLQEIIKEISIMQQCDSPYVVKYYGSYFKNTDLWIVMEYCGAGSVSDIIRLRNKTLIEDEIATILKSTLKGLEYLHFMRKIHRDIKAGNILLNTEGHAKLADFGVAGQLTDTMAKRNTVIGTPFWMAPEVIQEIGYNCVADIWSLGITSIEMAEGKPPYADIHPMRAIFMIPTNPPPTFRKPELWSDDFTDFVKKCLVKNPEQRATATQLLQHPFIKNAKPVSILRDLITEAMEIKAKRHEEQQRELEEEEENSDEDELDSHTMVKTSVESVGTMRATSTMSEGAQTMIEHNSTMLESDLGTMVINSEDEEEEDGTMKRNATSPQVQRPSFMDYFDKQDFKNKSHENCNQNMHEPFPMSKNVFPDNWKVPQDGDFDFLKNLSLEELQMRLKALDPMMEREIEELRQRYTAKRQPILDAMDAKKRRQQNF", "assay": "Inhibition of recombinant full length N-terminal GST -tagged human MST2 expressed in baculovirus infected Sf9 insect cells using KKSRGDYMTMQIG as substrate incubated for 1 hr in presence of ATP by ADP-Glo luminescent assay relative to control", "settings": "concentration not given here"}, "[3]": {"target": "T2, Serine/threonine-protein kinase Nek3 (Homo sapiens, UniProt P51956)", "T2 sequence (P51956 whole entry)": "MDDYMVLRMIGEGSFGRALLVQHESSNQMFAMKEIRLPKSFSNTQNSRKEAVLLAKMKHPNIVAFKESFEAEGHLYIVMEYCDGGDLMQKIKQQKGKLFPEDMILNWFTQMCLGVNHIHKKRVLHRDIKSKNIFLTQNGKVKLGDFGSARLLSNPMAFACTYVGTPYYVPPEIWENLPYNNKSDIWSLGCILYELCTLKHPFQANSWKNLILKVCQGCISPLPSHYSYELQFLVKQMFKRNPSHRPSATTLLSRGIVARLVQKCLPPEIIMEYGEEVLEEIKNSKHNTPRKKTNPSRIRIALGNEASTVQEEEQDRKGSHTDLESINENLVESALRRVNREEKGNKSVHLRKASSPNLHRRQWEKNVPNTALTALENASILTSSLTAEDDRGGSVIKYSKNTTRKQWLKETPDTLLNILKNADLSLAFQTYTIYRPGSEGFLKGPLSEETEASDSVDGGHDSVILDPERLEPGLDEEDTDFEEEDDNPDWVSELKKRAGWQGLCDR", "assay": "Inhibition of recombinant full length N-terminal GST -tagged human NEK3 expressed in baculovirus expression system using S2 as substrate incubated for 2 hrs by HTRF assay"}, "[4]": {"assay": "Cmax in mouse at 1 mg/kg, iv measured up to 12 hrs by LC-MS/MS analysis", "format": "ADME, organism-based", "parameters": "time < 12 hrs, dose 1 mg/kg, route iv", "settings": "in vivo"}, "[5]": {"assay": "Half life in Beagle dog at 1 mg/kg, iv measured up to 12 hrs by LC-MS/MS analysis", "format": "ADME, organism-based, Canis lupus familiaris", "settings": "in vivo"}, "[6]": {"assay": "Cmax in Sprague-Dawley rat at 1 mg/kg, iv measured up to 12 hrs by LC-MS/MS analysis", "format": "ADME, organism-based", "parameters": "time < 12 hrs, dose 1 mg/kg, route iv", "settings": "in vivo"}, "[7]": {"test_system": "Mus musculus", "assay": "Antidiabetic activity in high fat diet-STZ-induced C57BL/6J mouse model of type 2 diabetes assessed as reduction in HbA1c level at 250 mg/kg, po qd administered in presence of metformin (reference value: 8.6 %)", "format": "functional", "parameters": "scale not given: the % may be the effect or the level left"}, "[8]": {"test_system": "Serine/threonine-protein kinase 4 (Rattus norvegicus)", "assay": "Inhibition of TNF-alpha-stimulated MST1 phosphorylation in rat INS1 cells incubated for 12 hrs by Western blotting analysis", "settings": "dose 0.1-10 µM, DDE = dose-dependent effect"}, "[9]": {"test_system": "Serine/threonine-protein kinase 4 (Rattus norvegicus)", "assay": "Inhibition of TNF-alpha-stimulated MST1 in rat RIN-m5F cells assessed as reduction in MOB1 autophosphorylation incubated for 12 hrs by Western blotting analysis", "settings": "dose 0.1-10 µM, DDE = dose-dependent effect"}, "[10]": {"test_system": "Serine/threonine-protein kinase 4 (Rattus norvegicus)", "assay": "Inhibition of INF-gamma-stimulated MST1 phosphorylation in rat RIN-m5F cells incubated for 12 hrs by Western blotting analysis", "settings": "dose 0.1-10 µM, DDE = dose-dependent effect"}, "[11]": {"test_system": "INS1", "assay": "Protection against TNF-alpha-induced damage in rat INS1 cells assessed as increase in cell survival at 0.03 to 0.3 uM incubated for 48 hrs by Cell Titer-Glo assay", "format": "functional, cell-based", "settings": "dose 0.03-0.3 µM"}, "[12]": {"test_system": "Serine/threonine-protein kinase 4 (Rattus norvegicus)", "assay": "Inhibition of IL-1beta-stimulated MST1 phosphorylation in rat INS1 cells incubated for 12 hrs by Western blotting analysis", "settings": "dose 0.1-10 µM, DDE = dose-dependent effect"}, "[13]": {"assay": "Half life in Sprague-Dawley rat at 1 mg/kg, iv measured up to 12 hrs by LC-MS/MS analysis", "format": "ADME, organism-based", "settings": "in vivo"}, "[14]": {"test_system": "INS1", "assay": "Protection against IL-1beta-induced cell damage in rat INS1 cells assessed as increase in cell survival at 0.03 to 0.3 uM incubated for 48 hrs by Cell Titer-Glo assay", "format": "functional, cell-based", "settings": "dose 0.03-0.3 µM"}, "[15]": {"target": "T3, Serine/threonine-protein kinase 4 (Homo sapiens, UniProt Q13043)", "T3 sequence (Q13043 whole entry)": "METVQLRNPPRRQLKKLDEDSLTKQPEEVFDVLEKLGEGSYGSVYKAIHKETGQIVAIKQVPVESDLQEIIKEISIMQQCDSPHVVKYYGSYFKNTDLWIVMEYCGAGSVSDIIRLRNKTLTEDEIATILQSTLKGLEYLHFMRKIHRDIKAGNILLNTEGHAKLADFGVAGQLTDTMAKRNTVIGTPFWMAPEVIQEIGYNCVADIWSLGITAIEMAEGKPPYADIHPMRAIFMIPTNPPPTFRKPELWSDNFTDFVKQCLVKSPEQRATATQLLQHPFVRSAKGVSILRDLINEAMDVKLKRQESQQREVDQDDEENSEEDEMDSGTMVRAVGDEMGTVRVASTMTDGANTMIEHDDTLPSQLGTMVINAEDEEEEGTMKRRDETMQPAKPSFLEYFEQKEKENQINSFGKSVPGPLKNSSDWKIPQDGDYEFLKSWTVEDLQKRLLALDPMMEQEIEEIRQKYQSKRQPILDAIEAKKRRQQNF", "assay": "Inhibition of recombinant full length N-terminal GST -tagged human MST1 expressed in baculovirus infected Sf9 insect cells using KKSRGDYMTMQIG as substrate incubated for 1 hr in presence of ATP by ADP-Glo luminescent assay"}, "[16]": {"test_system": "Mus musculus", "assay": "Antidiabetic activity against 12 hrs fasted high fat diet-STZ-induced C57BL/6J mouse model of type 2 diabetes assessed as decrease in fasting blood glucose level at 50 mg/kg, po qd administered measured immediately in presence of metformin (reference value: 20.3 mmol/L)", "format": "functional"}, "[17]": {"assay": "AUC (0 to t) in Sprague-Dawley rat at 10 mg/kg, po measured up to 24 hrs by LC-MS/MS analysis", "format": "ADME, organism-based", "parameters": "time < 24 hrs, dose 10 mg/kg, route po", "settings": "in vivo"}},
  "note": "Activity calls are given as the source filed them. The calls are words filed in the database; no cut-off is given here.",
  "data": [
    {"compound": "Cc1ccccc1C1C(=O)N(C)c2cnc(Nc3ccc(S(N)(=O)=O)cc3)nc2N1C", "note": "(configuration not stated)", "values": [
      {"measurement": "AUC(0-t) at 12 h", "setting": "[1]", "value": 501, "unit": "ng·h/mL"},
      {"measurement": "inhibition", "setting": "[2]", "value": 52, "unit": "%"},
      {"measurement": "IC50", "setting": "[3]", "value": "> 10000", "unit": "nM"},
      {"measurement": "Cmax", "setting": "[4]", "value": 1240, "unit": "ng/mL"},
      {"measurement": "half-life", "setting": "[5]", "value": 6.47, "unit": "h"},
      {"measurement": "Cmax", "setting": "[6]", "value": 944, "unit": "ng/mL"},
      {"measurement": "Activity", "setting": "[7]", "value": 5.9, "unit": "%"},
      {"measurement": "inhibition", "setting": "[8]", "value": "Dde"},
      {"measurement": "inhibition", "setting": "[9]", "value": "Dde"},
      {"measurement": "inhibition", "setting": "[10]", "value": "Dde"},
      {"measurement": "Activity", "setting": "[11]", "value": "Active"},
      {"measurement": "inhibition", "setting": "[12]", "value": "Dde"},
      {"measurement": "half-life", "setting": "[13]", "value": 3.51, "unit": "h"},
      {"measurement": "Activity", "setting": "[14]", "value": "Active"},
      {"measurement": "IC50", "setting": "[15]", "value": 23, "unit": "nM"},
      {"measurement": "Activity", "setting": "[16]", "value": 20.3, "unit": "mmol/L"},
      {"measurement": "AUCt", "setting": "[17]", "value": 4858, "unit": "ng·h/mL"}
    ]}
  ]
}
